Converted amounts (≈) assume the structure as drawn. Read-outs that look alike come from different tables or passages of the source. Marks after values point to notes of the source that are not given here. Where only a bound is given, the exact number is not on record here.

The subject of series [1] is TC-83 strain of VEEV. Type of series: cell-based, Venezuelan equine encephalitis virus.
Series [2] deals with TC-83 strain of VEEV. The series is classed as cell-based, Venezuelan equine encephalitis virus. The source holds these as a separate data set.
The test system of series [3] is TC-83 strain of VEEV. Type of series: cell-based, Venezuelan equine encephalitis virus. The source holds these as a separate data set.
In series [4] the test system is Vero cells.
Series [5] has as its system intracellular CTP pools. The series is classed as cell-based.
For series [6], the system named is TC-83 VEEV. Kind of series: microbe, parasite or virus in culture. Type of series: cell-based, Venezuelan equine encephalitis virus.
Series [7] concerns TC-83 VEEV. Set-up: species or system C3H/HeN mice. As to conditions: mouse, in vivo.
Series [8] deals with TC-83 VEEV. Set-up: species or system C3H/HeN mice. As to conditions: mouse, in vivo. This is another data set of the same source.
Series [9] relates to TrD VEEV. Set-up: species or system ICR mice. The settings on record: mouse, in vivo.
In series [10] the test system is Vero cells. This is another data set of the same source.
For series [11] the following is noted: in vivo, iv; cited from earlier work.
Series [12] deals with TC-83 VEEV. The series is described as follows: microbe, parasite or virus in culture. The series is classed as cell-based. As to conditions: Venezuelan equine encephalitis virus, read-out: EC50 (neutral red uptake).

`Nc1ccn([C@H]2C[C@@H](CO)[C@H](O)[C@@H]2O)c(=O)n1` (racemic) [(+/-)-carbodine, Carbocyclic cytidine]: in [1], the “EC50 (vis)” value was 0.68 µg/mL (≈ 2.82 µM). Also, in series [2], the “EC50 (NR)” value amounted to 0.70 µg/mL (≈ 2.9 µM). In addition, the EC90 in [3] was determined as 1.7 µg/mL (≈ 7.05 µM). The molecule further showed an IC50 in series [4] above 100 µg/mL.

Take `Nc1ccn([C@H]2C[C@@H](CO)[C@H](O)[C@@H]2O)c(=O)n1` [(+)-carbodine]: the “EC50 (vis)” value in [1] is above 100 µg/mL. Moreover, in [2], the “Activity against TC-83 vaccine strain of VEEV” value is recorded as “no activity” and the “EC50 (NR)” value is above 100 µg/mL. Besides, the EC90 in series [3] is above 100 µg/mL. Moreover, in series [5], the “Intracellular CTP reduction” value was “not reduced”. The IC50 in series [4] is above 100 µg/mL.

Regarding `Nc1ccn([C@@H]2C[C@H](CO)[C@@H](O)[C@H]2O)c(=O)n1` [(-)-carbodine], the “EC50 (vis)” value in series [1] is 0.3 ± 0.2 ^f μg/ml. The “EC50 (NR)” value in series [2] turned out to be 0.2 ± 0.0 µg/mL (≈ 0.829 µM). In [3], this molecule returned an EC90 of 0.4 ± 0.2 µg/mL (≈ 1.66 µM). In addition, the “Cytidine concentration at which activity was completely abolished” value in series [6] lay in the range of 10 to 32 µg/mL. In addition, the “Reduction in intracellular CTP” value in series [5] amounted to 65%. Also, the Mortality rate in [7] was 50%. Moreover, the “Reduction of brain virus titer vs placebo” value in series [8] is reported as 10 fold. In addition, the Survival result in series [9] is given as “all animals died”. In addition, the “Mean time to death vs placebo” value in [9] (ip) is reported as “slight, but significant, extension”. In series [4], the IC50 was above 100 µg/mL and the “IC50 (neutral red uptake)” value is above 100 µg/mL. For the same molecule, in [10], the “IC50 (visual inspection)” value is above 100 µg/mL.

Consider `Nc1ccn([C@@H]2C=C(CO)[C@@H](O)[C@H]2O)c(=O)n1` [Cyclopentenyl cytosine], for which the “Adverse effects in human patients with solid tumors” value in series [11] was “hypotension and death”.

As to `Nc1ccn([C@@H]2O[C@H](CO)[C@@H](O)[C@H]2O)c(=O)n1` [Cytidine, cytidine, reference compound], the EC50 in [6] (Venezuelan equine encephalitis virus, read-out: EC50 (visual inspection)) was above 100 µg/mL; in [12] it was above 100 µg/mL.

For Interferon alfacon-1, the “EC50 (vis)” value in [1] came out at 0.06 µg/mL. The “EC50 (NR)” value in series [2] worked out at 0.05 µg/mL. In series [3], the EC90 is 0.06 µg/mL. Besides, the “EC50 (visual inspection)” value in series [6] was 0.06 µg/mL. Moreover, in series [4], the IC50 was above 10 µg/mL and the “IC50 (neutral red uptake)” value is above 10 µg/mL. Besides, the “IC50 (visual inspection)” value in series [10] was above 10 µg/mL.

The record behind these values is publication PMC2612642 (Antiviral research, 2008).
